Measurements taken from patent publication US9408395B2, “Process for potentiating the production of Lingzhi mushroom (Ganoderma lucidum) substances and antifungal activity thereof” (UNIVERSIDAD DE ANTIOQUIA (UDEA), priority 2013, dated 2016).

How the values were obtained:
Mycosphaerella fijiensis [1] = assay: Mycelium growth inhibition in microplate format, protein extracts; assay type: cell-based; conditions: 0.3 ppm
Description: In order to obtain protein extracts, the optimized protein extraction protocol was followed (Item 4.1.2). Later, the protein pellet was re-suspended in 1 ml PBS pH 7.4 buffer, 200 μL DMSO and 200 μL glycerol. The protein extracts of each LED were quantified by the Bradford method (Bio-Rad Protein Assay®) (61). […] The extracts were diluted in pH 7.4 PBS phosphate buffer.
The Mycosphaerella fijiensis-inoculated microplates and also treated with the different extracts were incubated. Readings were performed according to the Standard Norm. Each concentration was assayed in three repetitions, including three experiment replicas (63, 64). Thereafter, the determination of the growth inhibition percentage for each concentration of each protein extract used was performed (65-67).
Through the use of logic models (non linear regressions) the relationship between the concentration logarithm of each antifungal (x axis) versus inhibition percentage (y axis) was established thus obtaining the respective equations, for EC50 analysis for each treatment at 5 concentrations, in order to determine the necessary concentration of each extract to reduce the population growth by 50% at an in vitro level.
In order to determine which the best protein extract for Mycosphaerella fijiensis mycelium growth inhibition was, a statistical analysis using a category factorial design was performed. […]

Mycosphaerella fijiensis [2] = assay: Agar diffusion assay (plate diffusion method); assay type: cell-based; conditions: compared to other treatments and growth control
Description: In order to corroborate antifungal activity of each extract, said activity was assayed in Petri dishes using the plate diffusion method; for said purpose, 20 ml of PDA medium were dispensed for a final thickness of 4 mm. After homogenizing inocula, deep plating was performed wherein each plate was inoculated using 2×10^4 Mycosphaerella fijiensis mycelium fragments. Afterwards, using a 0.5 mm internal diameter punch, wells were made wherein 10 or 20 μL of each extract were deposited, in addition to the inhibition positive control using Mancozeb and a negative control using a 1:1 ethanol:DMSO mix. The plates were incubated in darkness conditions, 25±1° C. for seven days.

Mancozeb
Inhibition of Mycosphaerella fijiensis growth (Mycosphaerella fijiensis [1]): 72%
Mycelium growth inhibition (in words) (Mycosphaerella fijiensis [2]): entirely inhibited
